The subject of experiment [1] is T47D (PI3Kα-H1047R) cell line. The experiment in a line: HTRF phospho-AKT(S473) cell assay in T47D cells. Type of experiment: cell-based, human. The method, boiled down:
(§1)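 T47D (PI3Kα-H1047R; RPMI, 10% FBS, insulin) and SKBR3 (wild-type PI3Kα; McCoy's 5A, 10% FBS) cells treated 2 h at 37 °C with 12-point 1:3 dilutions, top 5 μM and 10 μM respectively, ≤0.5% DMSO. SKBR3 stimulated with 70 ng/ml PDGF-BB for the last 15 min; lysate pAKT(S473) by HTRF, IC50 from curves.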
(In general: In TR-FRET formats the signal depends on donor and acceptor labels being close together.)

For experiment [2], the system named is SKBR3 (PI3Kα-Wild Type) cell line. The experiment is described as follows: HTRF phospho-AKT(S473) cell assay in SKBR3 cells. Type of experiment: cell-based, human. The method, boiled down: as §1
[3] abbreviates: Homo sapiens; T47D (PI3Kα-H1047R) cells, HTRF phospho-AKT(S473), 2 hours compound incubation.
The mark [4] stands for this setting: Homo sapiens, SK-BR-3; SKBR3 (PI3Kα-Wild Type) cells, HTRF phospho-AKT(S473), 2 hours compound incubation, PDGF-BB stimulated.
The mark [5] stands for this setting: Homo sapiens; HTRF phospho-AKT(S473), T47D (PI3Kα-H1047R) cells, 2 hours compound incubation.
[6] abbreviates: Homo sapiens, SK-BR-3; HTRF phospho-AKT(S473), SKBR3 (PI3Kα-Wild Type) cells, 2 hours compound incubation, PDGF-BB stimulated.

Structures are written as SMILES. pIC50: −log10 of the molar value.

`Cc1cc([C@@H](C)Nc2ccc(Cl)nc2C(=O)NS(C)(=O)=O)c2nc(N3CCC(c4nccnc4C)CC3)n(C)c(=O)c2c1` [Compound 438, (R)-6-chloro-3-((1-(3,6-dimethyl-2-(4-(3-methylpyrazin-2-yl)piperidin-1-yl)-4-oxo-3,4-dihydroquinazolin-8-yl)ethyl)amino)-N-(methylsulfonyl) picolinamide]: the pIC50 (commonly the negative decadic logarithm of the IC50, by convention in mol/L) was 6.30 to 6.60 in experiment [1] (setting [3]) and at most 5.30 in experiment [2] (setting [4]).

Turning to `Cc1cc([C@@H](C)Nc2ccc(Cl)nc2C(=O)NS(C)(=O)=O)c2nc(N3C[C@@H]4[C@H](C3)[C@H]4c3cnccn3)n(C)c(=O)c2c1` [Compound 439, 6-chloro-3-(((R)-1-(3,6-dimethyl-4-oxo-2-((1R,5S,6R)-6-(pyrazin-2-yl)-3-azabicyclo[3.1.0]hexan-3-yl)-3,4-dihydroquinazolin-8-yl)ethyl)amino)-N-(methylsulfonyl) picolinamide], the pIC50 in experiment [1] (setting [3]) is above 6.60; in experiment [2] (setting [4]), 5.30 to 6.00.

With `COc1nn(C)cc1[C@H]1[C@@H]2CN(c3nc4c([C@@H](C)Nc5ccc(Cl)nc5C(=O)NS(C)(=O)=O)cc(C)cc4c(=O)n3C)C[C@@H]21` [Compound 440, 6-chloro-3-(((R)-1-(2-((1R,5S,6S)-6-(3-methoxy-1-methyl-1H-pyrazol-4-yl)-3-azabicyclo[3.1.0]hexan-3-yl)-3,6-dimethyl-4-oxo-3,4-dihydroquinazolin-8-yl)ethyl)amino)-N-(methylsulfonyl) picolinamide], the negative logarithm of the IC50 (pIC50) in experiment [1] (setting [5]) was above 6.60; in experiment [2] (setting [6]), 5.30 to 6.00.

For `Cc1cc([C@@H](C)Nc2ccc(Cl)nc2C(=O)NS(C)(=O)=O)c2nc(N3C[C@@H]4[C@H](C3)[C@H]4c3ccc(C)nn3)n(C)c(=O)c2c1` [Compound 441, 6-chloro-3-(((R)-1-(3,6-dimethyl-2-((1R,5S,6R)-6-(6-methylpyridazin-3-yl)-3-azabicyclo [3.1.0]hexan-3-yl)-4-oxo-3,4-dihydroquinazolin-8-yl)ethyl)amino)-N-(methylsulfonyl) picolinamide], the values for the pIC50 in experiment [1] (setting [5]) and in experiment [2] (setting [6]) were above 6.60 and 5.30 to 6.00, respectively.

On to `Cc1cnc(C2CCN(c3nc4c([C@@H](C)Nc5ccc(Cl)nc5C(=O)NS(C)(=O)=O)cc(Cl)cc4c(=O)n3C)CC2)cn1` [Compound 442, (R)-6-chloro-3-((1-(6-chloro-3-methyl-2-(4-(5-methylpyrazin-2-yl)piperidin-1-yl)-4-oxo-3,4-dihydroquinazolin-8-yl)ethyl)amino)-N-(methylsulfonyl) picolinamide], for which the negative-log IC50 (pIC50) was above 6.60 in experiment [1] (setting [5]) and 5.30 to 6.00 in experiment [2] (setting [6]).

Take `Cc1cc([C@@H](C)Nc2ccc(Cl)nc2C(=O)NS(C)(=O)=O)c2nc(N3CCC(c4ccn(C(F)(F)F)n4)CC3)n(C)c(=O)c2c1` [Compound 445, (R)-6-chloro-3-((1-(3,6-dimethyl-4-oxo-2-(4-(1-(trifluoromethyl)-1H-pyrazol-3-yl)piperidin-1-yl)-3,4-dihydroquinazolin-8-yl)ethyl)amino)-N-(methylsulfonyl) picolinamide]: the figures for the pIC50 in experiment [1] (setting [5]) and in experiment [2] (setting [6]) were 6.30 to 6.60 and at most 5.30, respectively.

Take `Cc1cc([C@@H](C)Nc2ccc(Cl)nc2C(=O)NS(C)(=O)=O)c2nc(N3CCC(c4ccnn4C(F)(F)F)CC3)n(C)c(=O)c2c1` [Compound 446, (R)-6-chloro-3-((1-(3,6-dimethyl-4-oxo-2-(4-(1-(trifluoromethyl)-1H-pyrazol-5-yl)piperidin-1-yl)-3,4-dihydroquinazolin-8-yl)ethyl)amino)-N-(methylsulfonyl) picolinamide]: the pIC50 is 6.30 to 6.60 in experiment [1] (setting [5]) and at most 5.30 in experiment [2] (setting [6]).

Regarding `Cc1cc([C@@H](C)Nc2ccc(Cl)nc2C(=O)NS(C)(=O)=O)c2nc(N3CCC(c4ccn(C5COC5)n4)CC3)n(C)c(=O)c2c1` [Compound 447, (R)-6-chloro-3-((1-(3,6-dimethyl-2-(4-(1-(oxetan-3-yl)-1H-pyrazol-3-yl)piperidin-1-yl)-4-oxo-3,4-dihydroquinazolin-8-yl)ethyl)amino)-N-(methylsulfonyl) picolinamide], the pIC50 is above 6.60 in experiment [1] (setting [5]) and 5.30 to 6.00 in experiment [2] (setting [6]).

Turning to `Cc1cc([C@@H](C)Nc2ccc(Cl)nc2C(=O)NS(C)(=O)=O)c2nc(N3C[C@@H]4[C@H](C3)[C@H]4c3coc(C)n3)n(C)c(=O)c2c1` [Compound 448, 6-chloro-3-(((R)-1-(3,6-dimethyl-2-((1R,5S,6R)-6-(2-methyloxazol-4-yl)-3-azabicyclo[3.1.0]hexan-3-yl)-4-oxo-3,4-dihydroquinazolin-8-yl)ethyl)amino)-N-(methylsulfonyl) picolinamide], the figures for the pIC50 in experiment [1] (setting [5]) and in experiment [2] (setting [6]) were above 6.60 and 5.30 to 6.00, respectively.

For the compound `Cc1cc([C@@H](C)Nc2ccc(Cl)nc2C(=O)NS(C)(=O)=O)c2nc(N3C[C@@H]4[C@H](C3)[C@H]4c3ccc(C)nc3)n(C)c(=O)c2c1` [Compound 449, 6-chloro-3-(((R)-1-(3,6-dimethyl-2-((1R,5S,6S)-6-(6-methylpyridin-3-yl)-3-azabicyclo[3.1.0]hexan-3-yl)-4-oxo-3,4-dihydroquinazolin-8-yl)ethyl)amino)-N-(methylsulfonyl) picolinamide], the values for the pIC50 in experiment [1] (setting [5]) and in experiment [2] (setting [6]) were 6.30 to 6.60 and at most 5.30, respectively.

For the compound `Cc1cc([C@@H](C)Nc2ccc(Cl)nc2C(=O)NS(C)(=O)=O)c2nc(N3CCN(c4nn(C)cc4F)CC3)n(C)c(=O)c2c1` [Compound 450, (R)-6-chloro-3-((1-(2-(4-(4-fluoro-1-methyl-1H-pyrazol-3-yl)piperazin-1-yl)-3,6-dimethyl-4-oxo-3,4-dihydroquinazolin-8-yl)ethyl)amino)-N-(methylsulfonyl) picolinamide], the pIC50 in experiment [1] (setting [5]) is above 6.60; in experiment [2] (setting [6]), at most 5.30.

As to `C[C@@H](Nc1ccc(Cl)nc1C(=O)NS(C)(=O)=O)c1cc(Cl)cc2c(=O)n(C)c(N3C[C@@H]4[C@H](C3)[C@H]4c3ccn(C)n3)nc12` [Compound 451, 6-chloro-3-(((R)-1-(6-chloro-3-methyl-2-((1R,5S,6R)-6-(1-methyl-1H-pyrazol-3-yl)-3-azabicyclo[3.1.0]hexan-3-yl)-4-oxo-3,4-dihydroquinazolin-8-yl)ethyl)amino)-N-(methylsulfonyl) picolinamide], the values for the negative logarithm of the IC50 (pIC50) in experiment [1] (setting [5]) and in experiment [2] (setting [6]) were above 6.60 and 5.30 to 6.00, respectively.

As for `C[C@@H](Nc1ccc(Cl)nc1C(=O)NS(C)(=O)=O)c1cc(C(F)(F)F)cc2c(=O)n(C)c(N3C[C@@H]4[C@H](C3)[C@H]4c3ccn(C)n3)nc12` [Compound 452, 6-chloro-3-(((R)-1-(3-methyl-2-((1R,5S,6R)-6-(1-methyl-1H-pyrazol-3-yl)-3-azabicyclo[3.1.0]hexan-3-yl)-4-oxo-6-(trifluoromethyl)-3,4-dihydroquinazolin-8-yl)ethyl)amino)-N-(methylsulfonyl) picolinamide], the pIC50 was 6.30 to 6.60 in experiment [1] (setting [5]) and 5.30 to 6.00 in experiment [2] (setting [6]).

For the compound `C[C@@H](Nc1ccc(Cl)nc1C(=O)NS(C)(=O)=O)c1cc(C(F)(F)F)cc2c(=O)n(C)c(N3CCC(c4nn(C)cc4F)CC3)nc12` [Compound 453, (R)-6-chloro-3-((1-(2-(4-(4-fluoro-1-methyl-1H-pyrazol-3-yl)piperidin-1-yl)-3-methyl-4-oxo-6-(trifluoromethyl)-3,4-dihydroquinazolin-8-yl)ethyl)amino)-N-(methylsulfonyl) picolinamide], the values for the pIC50 in experiment [1] (setting [5]) and in experiment [2] (setting [6]) were above 6.60 and at most 5.30, respectively.

As for `Cc1cc([C@@H](C)Nc2ccc(Cl)nc2C(=O)NS(C)(=O)=O)c2nc(N3C[C@@H]4[C@H](C3)[C@H]4c3n[nH]cc3F)n(C)c(=O)c2c1` [Compound 454, 6-chloro-3-(((R)-1-(2-((1R,5S,6R)-6-(4-fluoro-1H-pyrazol-3-yl)-3-azabicyclo[3.1.0]hexan-3-yl)-3,6-dimethyl-4-oxo-3,4-dihydroquinazolin-8-yl)ethyl)amino)-N-(methylsulfonyl) picolinamide], the negative-log IC50 (pIC50) in experiment [1] (setting [5]) is above 6.60; in experiment [2] (setting [6]), 5.30 to 6.00.

For `Cc1cc([C@@H](C)Nc2ccc(Cl)nc2C(=O)NS(C)(=O)=O)c2nc(N3CCC(c4c(F)cnn4C4CC4)CC3)n(C)c(=O)c2c1` [Compound 455, (R)-6-chloro-3-((1-(2-(4-(1-cyclopropyl-4-fluoro-1H-pyrazol-5-yl)piperidin-1-yl)-3,6-dimethyl-4-oxo-3,4-dihydroquinazolin-8-yl)ethyl)amino)-N-(methylsulfonyl) picolinamide], the pIC50 in experiment [1] (setting [5]) was above 6.60; in experiment [2] (setting [6]), 5.30 to 6.00.

In the case of `[2H]C([2H])([2H])n1cc(F)c(C2CCN(c3nc4c([C@@H](C)Nc5ccc(Cl)nc5C(=O)NS(C)(=O)=O)cc(C)cc4c(=O)n3C)CC2)n1` [Compound 456, (R)-6-chloro-3-((1-(2-(4-(4-fluoro-1-(methyl-d3)-1H-pyrazol-3-yl)piperidin-1-yl)-3,6-dimethyl-4-oxo-3,4-dihydroquinazolin-8-yl)ethyl)amino)-N-(methylsulfonyl) picolinamide], the results for the negative-log IC50 (pIC50) in experiment [1] (setting [5]) and in experiment [2] (setting [6]) were above 6.60 and at most 5.30, respectively.

For `[2H]C([2H])([2H])n1ncc(F)c1C1CCN(c2nc3c([C@@H](C)Nc4ccc(Cl)nc4C(=O)NS(C)(=O)=O)cc(C)cc3c(=O)n2C)CC1` [Compound 457, (R)-6-chloro-3-((1-(2-(4-(4-fluoro-1-(methyl-d3)-1H-pyrazol-5-yl)piperidin-1-yl)-3,6-dimethyl-4-oxo-3,4-dihydroquinazolin-8-yl)ethyl)amino)-N-(methylsulfonyl) picolinamide], the negative logarithm of the IC50 (pIC50) in experiment [1] (setting [5]) is 6.00 to 6.30; in experiment [2] (setting [6]), at most 5.30.

These data come from US12281122B1, “PI3K inhibitors” (Cogent Biosciences, Inc., priority 2023, dated 2025).
